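Step 1: Grow cells in 96-well plates. Step 2: Expose to compound for 48 hours at 5 concentrations. Step 3: Interpolate endpoints linearly; if unreached, use highest concentration. Abbreviation: GI50, concentration required for 50% inhibition of growth.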 Calls of active or inactive are those of the source. No stated cut-off is given here; in the data, active = GI50 up to about 1.1 µM and inactive = higher.
Experiments:
Assay in all cases: growth of human tumour cells (NCI), 48 h
OVCAR-8 = system: OVCAR-8
T47D = system: T47D
MCF7 = system: MCF7
SF-268 = system: SF-268
RPMI-8226 = system: RPMI-8226
ACHN = system: ACHN
COLO 205 = system: COLO 205
U-251 = system: U-251
NCI-H460 = system: NCI-H460
OVCAR-5 = system: OVCAR-5
PC-3 = system: PC-3
K562 = system: K562
MDA-MB-231 = system: MDA-MB-231
LOX IMVI = system: LOX IMVI
SF-295 = system: SF-295
SN12C = system: SN12C
HCT-15 = system: HCT-15
Hs-578T = system: Hs-578T
786-0 = system: 786-0
DU-145 = system: DU-145
A498 = system: A498
KM12 = system: KM12
NCI-H23 = system: NCI-H23
TK-10 = system: TK-10
EKVX = system: EKVX
A549 = system: A549
RXF 393 = system: RXF 393
SK-MEL-5 = system: SK-MEL-5
SR = system: SR
IGROV-1 = system: IGROV-1
CAKI-1 = system: CAKI-1
UO-31 = system: UO-31
UACC-62 = system: UACC-62
HT-29 = system: HT-29
SNB-19 = system: SNB-19
UACC-257 = system: UACC-257
SK-MEL-28 = system: SK-MEL-28
MDA-MB-435 = system: MDA-MB-435
M14 = system: M14
BT-549 = system: BT-549
SK-MEL-2 = system: SK-MEL-2
HOP-92 = system: HOP-92
SK-OV-3 = system: SK-OV-3
HL-60 = system: HL-60
HCC 2998 = system: HCC 2998
OVCAR-4 = system: OVCAR-4
NCI/ADR-RES = system: NCI/ADR-RES
HOP-62 = system: HOP-62
MOLT-4 = system: MOLT-4
MDA-N = system: MDA-N
OVCAR-3 = system: OVCAR-3
SF-539 = system: SF-539
NCI-H522 = system: NCI-H522
SW-620 = system: SW-620
SNB-75 = system: SNB-75
NCI-H226 = system: NCI-H226
HCT-116 = system: HCT-116
CCRF-CEM = system: CCRF-CEM
Malme-3M = system: Malme-3M

Measured: GI50

N#C/C(=C\N1CCNC1=S)C(=O)c1ccc2ccccc2c1
inactive: OVCAR-8 > 100 µM | T47D 67 µM | MCF7 > 100 µM | SF-268 > 100 µM | RPMI-8226 89.7 µM | ACHN > 100 µM | COLO 205 > 100 µM | U-251 > 100 µM | NCI-H460 > 100 µM | OVCAR-5 > 100 µM | PC-3 97.1 µM | K562 > 100 µM | MDA-MB-231 > 100 µM | LOX IMVI > 100 µM | SF-295 > 100 µM | SN12C > 100 µM | Hs-578T > 100 µM | 786-0 > 100 µM | DU-145 > 100 µM | A498 > 100 µM | KM12 > 100 µM | NCI-H23 > 100 µM | TK-10 > 100 µM | EKVX > 100 µM | A549 > 100 µM | RXF 393 > 100 µM | SK-MEL-5 > 100 µM | SR 71.4 µM | IGROV-1 > 100 µM | CAKI-1 > 100 µM | UO-31 > 100 µM | UACC-62 > 100 µM | HT-29 > 100 µM | SNB-19 > 100 µM | UACC-257 > 100 µM | SK-MEL-28 > 100 µM | MDA-MB-435 89.1 µM | M14 > 100 µM | BT-549 > 100 µM | SK-MEL-2 > 100 µM | HOP-92 > 100 µM | SK-OV-3 > 100 µM | HL-60 7.06 µM | HCC 2998 > 100 µM | OVCAR-4 74 µM | NCI/ADR-RES > 100 µM | HOP-62 > 100 µM | MOLT-4 37.4 µM | MDA-N > 100 µM | OVCAR-3 > 100 µM | SF-539 > 100 µM | NCI-H522 > 100 µM | SW-620 > 100 µM | SNB-75 > 100 µM | NCI-H226 > 100 µM | HCT-116 > 100 µM
> 100 µM: HCT-15

COC(=O)c1scc(N)c1-n1ccc(=O)[nH]c1=O
> 100 µM: HCT-15
inactive: OVCAR-8 > 100 µM | T47D > 100 µM | CCRF-CEM > 100 µM | MCF7 > 100 µM | SF-268 > 100 µM | RPMI-8226 > 100 µM | ACHN > 100 µM | COLO 205 > 100 µM | U-251 > 100 µM | NCI-H460 > 100 µM | OVCAR-5 > 100 µM | PC-3 > 100 µM | K562 > 100 µM | MDA-MB-231 > 100 µM | LOX IMVI > 100 µM | SN12C > 100 µM | Hs-578T > 100 µM | 786-0 > 100 µM | DU-145 > 100 µM | A498 > 100 µM | KM12 > 100 µM | NCI-H23 > 100 µM | TK-10 > 100 µM | EKVX > 100 µM | A549 > 100 µM | RXF 393 > 100 µM | SK-MEL-5 > 100 µM | SR > 100 µM | IGROV-1 > 100 µM | CAKI-1 > 100 µM | UO-31 > 100 µM | UACC-62 > 100 µM | HT-29 > 100 µM | SNB-19 > 100 µM | UACC-257 > 100 µM | SK-MEL-28 > 100 µM | MDA-MB-435 > 100 µM | M14 > 100 µM | BT-549 > 100 µM | SK-MEL-2 > 100 µM | HOP-92 > 100 µM | HL-60 > 100 µM | HCC 2998 > 100 µM | OVCAR-4 > 100 µM | Malme-3M > 100 µM | NCI/ADR-RES > 100 µM | MOLT-4 > 100 µM | MDA-N > 100 µM | SF-539 > 100 µM | NCI-H522 > 100 µM | SW-620 > 100 µM | SNB-75 > 100 µM | NCI-H226 > 100 µM | HCT-116 > 100 µM

O=C(Nc1ccc(Cl)cc1)NS(=O)(=O)c1coc2ccccc2c1=O
> 10 µM: HCT-15
inactive: OVCAR-8 > 10 µM | T47D > 10 µM | CCRF-CEM > 10 µM | MCF7 > 10 µM | SF-268 > 10 µM | RPMI-8226 > 10 µM | ACHN > 10 µM | COLO 205 > 10 µM | U-251 > 10 µM | NCI-H460 > 10 µM | OVCAR-5 > 10 µM | PC-3 > 10 µM | MDA-MB-231 > 10 µM | LOX IMVI > 10 µM | SF-295 > 10 µM | SN12C > 10 µM | Hs-578T > 10 µM | 786-0 > 10 µM | DU-145 > 10 µM | A498 > 10 µM | KM12 > 10 µM | NCI-H23 > 10 µM | TK-10 > 10 µM | EKVX > 10 µM | A549 > 10 µM | RXF 393 > 10 µM | SK-MEL-5 > 10 µM | SR > 10 µM | IGROV-1 > 10 µM | CAKI-1 > 10 µM | UACC-62 > 10 µM | HT-29 > 10 µM | SNB-19 > 10 µM | UACC-257 > 10 µM | SK-MEL-28 > 10 µM | MDA-MB-435 > 10 µM | M14 > 10 µM | BT-549 > 10 µM | SK-MEL-2 > 10 µM | HOP-92 > 10 µM | SK-OV-3 > 10 µM | HL-60 > 10 µM | HCC 2998 > 10 µM | OVCAR-4 > 10 µM | Malme-3M > 10 µM | NCI/ADR-RES > 10 µM | HOP-62 > 10 µM | MOLT-4 > 10 µM | MDA-N > 10 µM | OVCAR-3 > 10 µM | SF-539 > 10 µM | NCI-H522 > 10 µM | SW-620 > 10 µM | SNB-75 > 10 µM | NCI-H226 > 10 µM | HCT-116 > 10 µM

COc1ccccc1-c1cc(O)c2cccnc2n1
inactive: OVCAR-8 37.7 µM | T47D 69.7 µM | CCRF-CEM 22.9 µM | MCF7 6.59 µM | SF-268 72.4 µM | RPMI-8226 44.1 µM | ACHN 64.1 µM | COLO 205 24.8 µM | U-251 40.3 µM | NCI-H460 39.4 µM | OVCAR-5 > 100 µM | PC-3 40.2 µM | K562 30.3 µM | MDA-MB-231 52.6 µM | LOX IMVI 33 µM | SF-295 67.9 µM | SN12C 50.2 µM | Hs-578T 61 µM | 786-0 76 µM | DU-145 > 100 µM | A498 54.2 µM | KM12 35.6 µM | NCI-H23 35.2 µM | TK-10 > 100 µM | EKVX 53.6 µM | A549 55 µM | RXF 393 > 100 µM | SK-MEL-5 31.4 µM | SR > 100 µM | IGROV-1 22.5 µM | CAKI-1 29.4 µM | UO-31 70.3 µM | UACC-62 47.5 µM | HT-29 23.4 µM | SNB-19 69.2 µM | UACC-257 37.8 µM | SK-MEL-28 82 µM | MDA-MB-435 23.4 µM | M14 38.4 µM | BT-549 22.2 µM | SK-MEL-2 36.5 µM | HOP-92 7.89 µM | SK-OV-3 58.1 µM | HL-60 39.3 µM | HCC 2998 > 100 µM | OVCAR-4 69.5 µM | Malme-3M 37.8 µM | NCI/ADR-RES 37 µM | HOP-62 > 100 µM | MOLT-4 35.2 µM | MDA-N 20 µM | OVCAR-3 36.5 µM | SF-539 56.9 µM | NCI-H522 46.9 µM | SW-620 30.1 µM | NCI-H226 49.7 µM | HCT-116 27.5 µM
23.7 µM: HCT-15

Source: ChEMBL document CHEMBL1201862, “PubChem BioAssay data set” (2004)
